Laboratory results as given in article PMC9582194, “The effect of helix-inducing constraints and downsizing upon a transcription block survival-derived functional cJun antagonist” (Cell Reports. Physical Science, 2022).
Blank lines part the entries; values can stand above or below the molecule they belong to. Positions of bridges follow the written chain, without caps; N, C: chain ends. Residues, ends and D or L forms follow the SMILES beside them. No end group written: not given here.

What was measured:
[1] = biological target: T1, cJun (Homo sapiens, UniProt P05412); assay: CD thermal denaturation of peptide-cJun heterodimers (Tm); type: binding; conditions: for Tm of peptide-cJun heterodimer: CD ellipticity at 222 nm, 1-90 °C, peptide (5 μM)/cJun (5 μM), 20 mM potassium phosphate, 150 mM potassium fluoride, 2 mM TCEP pH 7.4, two-state fit, duplicate experiments, ± one SD; for ΔTm of cJun heterodimer due to lactamization: cyclized versus its linear (non-lactamized) counterpart
T1 construct: The same 60 amino acid cJun construct, encompassing the entire bZIP domain, was used for all experiments
Description: (§1) The precise nature of the interaction between the cJun DBD and the rationally designed acidic domain of HW1 is unknown. HW1 was, therefore, iteratively truncated from the N terminus (HW2–6) to investigate the effect on cJun binding and cJun/TRE DNA antagonism (Table 1). Peptide fraction helicity (fH) was determined by quantifying the circular dichroism (CD) signal at 222 nm of peptide-only samples (Figure S1). Thermal denaturation experiments were then used to determine the melting temperature (Tm) of peptide-cJun heterodimers, which serves as an approximate measure of target engagement. CD was also used to investigate the functional activity of peptides in antagonizing the cJun/TRE DNA interaction. […] This provides a clear and direct measurement of the proportion of DNA bound to cJun. As antagonist peptide concentration was increased, the peak shifted to overlay with that of free TRE-DNA (Figure S4). For each peptide, the data were fit to a Hill equation to determine half-maximal inhibitory concentration (IC50) values, specific to these assay conditions, providing a clear comparative measure of antagonism. The same 60 amino acid cJun construct, encompassing the entire bZIP domain, was used for all experiments regardless of antagonist peptide length.
Figure 2 Iterative N-terminal truncation of HingeW reduces cJun binding and antagonism (A) Thermal denaturation profiles for iteratively truncated peptide (5 μM)/cJun (5 μM) heterodimer samples. (B) CD antagonism data produced by monitoring the shift in a DNA specific peak to provide a direct readout of cJun-DNA binding. Peptides are added at the indicated concentrations to a pre-incubated mixture of cJun (20 μM) and TRE DNA (5 μM). Data points were averaged from triplicate experiments, and error bars indicate one SD. The data were fitted to a Hill equation to determine IC50 values. Some higher peptide concentration data points for HW6 and HW9 are not shown in this plot for clarity.

[2] = Peptide fraction helicity by CD at 222 nm, peptide-only samples; type: physicochemical; conditions: for fH, peptide fraction helicity: CD signal at 222 nm of peptide-only samples, pH 7.4 phosphate/KF/TCEP buffer, duplicate experiments
Description: as §1

[3] = biological target: T2, cJun (60 amino acid construct encompassing the entire bZIP domain) (UniProt P05412 252-315); assay: CD thermal denaturation; peptide (5 μM) with cJun (5 μM); ellipticity at 222 nm, 1°C to 90°C; 20 mM potassium phosphate, 150 mM potassium fluoride, 2 mM TCEP, pH 7.4; two-state fit gives the Tm of the peptide-cJun heterodimer; duplicate experiments; conditions: both partners purified
[4] = biological target: T2, cJun (60 amino acid construct …); assay: cell-based or functional assay

T2 sequence (P05412 252-315): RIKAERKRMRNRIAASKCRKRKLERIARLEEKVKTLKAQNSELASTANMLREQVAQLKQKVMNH
T1 sequence (P05412 252-315 limits assumed): as the sequence (P05412 252-315) above

Molecule: Ac-EAEELVVEEDVLEEEIEQLEEKNKALKDEIEDLQKQY-NH2 [HW26]
Tm of peptide-cJun heterodimer [1]: 56.2 ± 1.3 °C | fH, peptide fraction helicity [2]: 36.0%

Molecule: Ac-EAEELVVEEDVLEEEIEQLEERNYALRKEIKDLQDQ-NH2 [HW28]
Tm of peptide-cJun heterodimer [1]: 55.6 ± 1.2 °C | fH, peptide fraction helicity [2]: 35.0%

Molecule: CC[C@H](C)[C@H](NC(=O)[C@H](CCC(=O)O)NC(=O)[C@H](CCCCN)NC(=O)[C@H](CCCNC(=N)N)NC(=O)[C@H](CC(C)C)NC(=O)[C@H](C)NC(=O)[C@H](Cc1ccc(O)cc1)NC(=O)[C@H](CC(N)=O)NC(=O)[C@H](CCCNC(=N)N)NC(=O)[C@H](CCC(=O)O)NC(=O)[C@H](CCC(=O)O)NC(=O)[C@H](CC(C)C)NC(=O)[C@H](CCC(N)=O)NC(=O)[C@H](CCC(=O)O)NC(=O)[C@@H](NC(=O)[C@H](CCC(=O)O)NC(=O)[C@H](CCC(=O)O)NC(=O)[C@H](CCC(=O)O)NC(=O)[C@H](CC(C)C)NC(=O)[C@@H](NC(=O)[C@H](CC(=O)O)NC(=O)[C@H](CCC(=O)O)NC(=O)[C@H](CCC(=O)O)NC(=O)[C@@H](NC(=O)[C@@H](NC(=O)[C@H](CC(C)C)NC(=O)[C@@H]1CC(=O)NCCCC[C@H](NC(C)=O)C(=O)N[C@@H](CCC(=O)O)C(=O)N[C@@H](C)C(=O)N[C@@H](CCC(=O)O)C(=O)N1)C(C)C)C(C)C)C(C)C)[C@@H](C)CC)C(=O)N[C@@H](CCCCN)C(=O)N[C@@H](CC(=O)O)C(=O)N[C@@H](CC(C)C)C(=O)N[C@@H](CCC(N)=O)C(=O)N[C@@H](CC(=O)O)C(=O)N[C@@H](CCC(N)=O)C(N)=O [HW19] (Ac-KEAEDLVVEEDVLEEEIEQLEERNYALRKEIKDLQDQ-NH2; lactam 1-5 (inferred))
Tm of peptide-cJun heterodimer [1]: 58.5 ± 1.0 °C | fH, peptide fraction helicity [2]: 40.1% | change in fH due to lactamization ([2]; cyclized versus its linear counterpart): ~1%

Molecule: Ac-LVVEEDVLEEEIEQLEEKNKALKDEIEDLQKQLEKLY-NH2 [HW10]
Tm of peptide-cJun heterodimer [1]: 64.3 ± 1.3 °C | fH, peptide fraction helicity [2]: 45.6%

Molecule: Ac-LARENEELEKEAEELVVEEDVLEEEIEQLEERNYALRKEIEDLQKQLEKL-NH2 [HW2]
Tm of peptide-cJun heterodimer [1]: 68.5 ± 1.1 °C | fH, peptide fraction helicity [2]: 32.8%

Molecule: Ac-EAEELVVEEDVLEEEIEQLEERNYALRKEIEDLQ-NH2 [HW16]
Tm of peptide-cJun heterodimer [1]: 53.8 ± 5.3 °C | fH, peptide fraction helicity [2]: 31.2%

Molecule: Ac-EAKELVDEEDVLEEEIEQLEERNYALRKEIEDLQKQ-NH2 [HW20]
Tm of peptide-cJun heterodimer [1]: 57.5 ± 1.1 °C | fH, peptide fraction helicity [2]: 36.9%

Molecule: Ac-EAEELVVEEKVLEDEIEQLEERNYALRKEIEDLQKQ-NH2 [HW22]
Tm of peptide-cJun heterodimer [1]: 54.9 ± 1.2 °C | fH, peptide fraction helicity [2]: 37.2%

Molecule: CC[C@H](C)[C@H](NC(=O)[C@H](CCC(=O)O)NC(=O)[C@H](CCCCN)NC(=O)[C@H](CCCNC(=N)N)NC(=O)[C@H](CC(C)C)NC(=O)[C@H](C)NC(=O)[C@H](Cc1ccc(O)cc1)NC(=O)[C@H](CC(N)=O)NC(=O)[C@H](CCCNC(=N)N)NC(=O)[C@H](CCC(=O)O)NC(=O)[C@H](CCC(=O)O)NC(=O)[C@H](CC(C)C)NC(=O)[C@H](CCC(N)=O)NC(=O)[C@H](CCC(=O)O)NC(=O)[C@@H](NC(=O)[C@H](CCC(=O)O)NC(=O)[C@H](CCC(=O)O)NC(=O)[C@H](CCC(=O)O)NC(=O)[C@H](CC(C)C)NC(=O)[C@@H](NC(=O)[C@H](CC(=O)O)NC(=O)[C@H](CCC(=O)O)NC(=O)[C@H](CCC(=O)O)NC(=O)[C@@H]1CC(=O)NCCCC[C@H](NC(=O)[C@H](C)NC(=O)[C@H](CCC(=O)O)NC(C)=O)C(=O)N[C@@H](CCC(=O)O)C(=O)N[C@@H](CC(C)C)C(=O)N[C@@H](C(C)C)C(=O)N1)C(C)C)[C@@H](C)CC)C(=O)N[C@@H](CCC(=O)O)C(=O)N[C@@H](CC(=O)O)C(=O)N[C@@H](CC(C)C)C(=O)N[C@@H](CCC(N)=O)C(=O)N[C@@H](CCCCN)C(=O)N[C@@H](CCC(N)=O)C(N)=O [HW21] (Ac-EAKELVDEEDVLEEEIEQLEERNYALRKEIEDLQKQ-NH2; lactam 3-7)
ΔTm of cJun heterodimer due to lactamization [1]: ~2 °C

Molecule: Ac-EAEELVVEEDVLEEEIEQLEERNYALRKEIEDL-NH2 [HW9]
Tm of peptide-cJun heterodimer [1]: 44.8 ± 1.2 °C | fH, peptide fraction helicity [2]: 32.8%

Molecule: Ac-LVVEEDVLEEEIEQLEERNYALRKEIEDLQKQLEDL-NH2 [HW12]
Tm of peptide-cJun heterodimer [1]: 62.1 ± 1.4 °C | fH, peptide fraction helicity [2]: 43.0%

B1: HW3 (peptide)
peptide: Ac-LEKEAEELVVEEDVLEEEIEQLEERNYALRKEIEDLQKQLEKL-NH2
notes: truncation NΔ17 CΔ3 of HW1; source: synthetic peptide (Fmoc SPPS, RP-HPLC purified)
Tm of the peptide-cJun heterodimer [3]: 67.9 °C | IC50 CD: peptide added to pre-incubated cJun (20 μM) and TRE DNA (5 μM); blocks cJun/TRE DNA binding [4]: 33.7 µM

B4: HW6 (peptide)
peptide: EDVLEEEIEQLEERNYALRKEIEDLQKQLEKLGAP-NH2
notes: truncation NΔ28 of HW1: the leucine zipper (LZ) only; also called LZ domain of HW1; source: synthetic peptide (Fmoc SPPS, RP-HPLC purified)
Tm of the peptide-cJun heterodimer [3]: 55.1 °C | IC50 CD: peptide added to pre-incubated cJun (20 μM) and TRE DNA (5 μM); blocks cJun/TRE DNA binding [4]: 130 µM

More lines, main results first:

Tm of peptide-cJun heterodimer [1]: 67.9 ± 0.9 °C | fH, peptide fraction helicity [2]: 38.3%
Molecule: Ac-LEKEAEELVVEEDVLEEEIEQLEERNYALRKEIEDLQKQLEKL-NH2 [HW3]

Tm of peptide-cJun heterodimer [1]: 55.1 ± 1.1 °C | fH, peptide fraction helicity [2]: 38.0%
Molecule: EDVLEEEIEQLEERNYALRKEIEDLQKQLEKLGAP-NH2 (C-terminus assumed) [HW6]

Tm of peptide-cJun heterodimer [1]: 55.5 ± 1.7 °C | fH, peptide fraction helicity [2]: 37.0%
Molecule: Ac-EAEELVVEEDVLEEEIKQLEDRNYALRKEIEDLQKQ-NH2 [HW24]

ΔTm of cJun heterodimer due to lactamization [1]: ~9 °C
Molecule: CC[C@H](C)[C@H](NC(=O)[C@H](CCC(=O)O)NC(=O)[C@H](CCCCN)NC(=O)[C@H](CCCNC(=N)N)NC(=O)[C@H](CC(C)C)NC(=O)[C@H](C)NC(=O)[C@H](Cc1ccc(O)cc1)NC(=O)[C@H](CC(N)=O)NC(=O)[C@H](CCCNC(=N)N)NC(=O)[C@H](CCC(=O)O)NC(=O)[C@H](CCC(=O)O)NC(=O)[C@H](CC(C)C)NC(=O)[C@H](CCC(N)=O)NC(=O)[C@H](CCC(=O)O)NC(=O)[C@@H](NC(=O)[C@H](CCC(=O)O)NC(=O)[C@@H]1CC(=O)NCCCC[C@H](NC(=O)[C@H](CCC(=O)O)NC(=O)[C@H](CCC(=O)O)NC(=O)[C@@H](NC(=O)[C@@H](NC(=O)[C@H](CC(C)C)NC(=O)[C@H](CCC(=O)O)NC(=O)[C@H](CCC(=O)O)NC(=O)[C@H](C)NC(=O)[C@H](CCC(=O)O)NC(C)=O)C(C)C)C(C)C)C(=O)N[C@@H](C(C)C)C(=O)N[C@@H](CC(C)C)C(=O)N[C@@H](CCC(=O)O)C(=O)N1)[C@@H](C)CC)C(=O)N[C@@H](CCC(=O)O)C(=O)N[C@@H](CC(=O)O)C(=O)N[C@@H](CC(C)C)C(=O)N[C@@H](CCC(N)=O)C(=O)N[C@@H](CCCCN)C(=O)N[C@@H](CCC(N)=O)C(N)=O [HW23] (Ac-EAEELVVEEKVLEDEIEQLEERNYALRKEIEDLQKQ-NH2; lactam 10-14)

Tm of peptide-cJun heterodimer [1]: 56.5 ± 1.6 °C | fH, peptide fraction helicity [2]: 38.7%
Molecule: Ac-KEAEDLVVEEDVLEEEIEQLEERNYALRKEIKDLQDQ-NH2 [HW18]

IC50 CD: peptide added to pre-incubated cJun (20 μM) and TRE DNA (5 μM); blocks cJun/TRE DNA binding [4]: 1210 µM
B2: HW9 (peptide)
peptide: Ac-EAEELVVEEDVLEEEIEQLEERNYALRKEIEDL-NH2
notes: truncation NΔ20 CΔ10 of HW1; source: synthetic peptide (Fmoc SPPS, RP-HPLC purified)
Tm of the peptide-cJun heterodimer [3]: 44.8 °C

IC50 CD: peptide added to pre-incubated cJun (20 μM) and TRE DNA (5 μM); blocks cJun/TRE DNA binding [4]: 94.1 µM
B3: HW27 (peptide)
peptide: Ac-EAEELVVEEDVLEEEIEQLEEKNKALKDEIEDLQKQY-NH2
modifications: lactam 24-28
SMILES: CC[C@H](C)[C@H](NC(=O)[C@H](CCC(=O)O)NC(=O)[C@@H]1CC(=O)NCCCC[C@H](NC(=O)[C@H](CC(N)=O)NC(=O)[C@H](CCCCN)NC(=O)[C@H](CCC(=O)O)NC(=O)[C@H](CCC(=O)O)NC(=O)[C@H](CC(C)C)NC(=O)[C@H](CCC(N)=O)NC(=O)[C@H](CCC(=O)O)NC(=O)[C@@H](NC(=O)[C@H](CCC(=O)O)NC(=O)[C@H](CCC(=O)O)NC(=O)[C@H](CCC(=O)O)NC(=O)[C@H](CC(C)C)NC(=O)[C@@H](NC(=O)[C@H](CC(=O)O)NC(=O)[C@H](CCC(=O)O)NC(=O)[C@H](CCC(=O)O)NC(=O)[C@@H](NC(=O)[C@@H](NC(=O)[C@H](CC(C)C)NC(=O)[C@H](CCC(=O)O)NC(=O)[C@H](CCC(=O)O)NC(=O)[C@H](C)NC(=O)[C@H](CCC(=O)O)NC(C)=O)C(C)C)C(C)C)C(C)C)[C@@H](C)CC)C(=O)N[C@@H](C)C(=O)N[C@@H](CC(C)C)C(=O)N[C@@H](CCCCN)C(=O)N1)C(=O)N[C@@H](CCC(=O)O)C(=O)N[C@@H](CC(=O)O)C(=O)N[C@@H](CC(C)C)C(=O)N[C@@H](CCC(N)=O)C(=O)N[C@@H](CCCCN)C(=O)N[C@@H](CCC(N)=O)C(=O)N[C@@H](Cc1ccc(O)cc1)C(N)=O
notes: cyclized form of the pair HW26/HW27; NΔ20 CΔ7; source: synthetic peptide (Fmoc SPPS, on-resin lactamization, RP-HPLC purified)
Tm of the peptide-cJun heterodimer [3]: 58.9 °C
